{
  "source": "patent US20100305098A1",
  "about": "“METHODS OF USE” (priority 2007, published 2010)",
  "key": {"[1]": {"biological_target": "T1, Leukotriene, Cysteinyl CysLT2 (Homo sapiens, UniProt Q9NS75)", "T1 construct": "purchased MDS Pharma (outsourced assay)", "T1 sequence (Q9NS75 whole entry)": "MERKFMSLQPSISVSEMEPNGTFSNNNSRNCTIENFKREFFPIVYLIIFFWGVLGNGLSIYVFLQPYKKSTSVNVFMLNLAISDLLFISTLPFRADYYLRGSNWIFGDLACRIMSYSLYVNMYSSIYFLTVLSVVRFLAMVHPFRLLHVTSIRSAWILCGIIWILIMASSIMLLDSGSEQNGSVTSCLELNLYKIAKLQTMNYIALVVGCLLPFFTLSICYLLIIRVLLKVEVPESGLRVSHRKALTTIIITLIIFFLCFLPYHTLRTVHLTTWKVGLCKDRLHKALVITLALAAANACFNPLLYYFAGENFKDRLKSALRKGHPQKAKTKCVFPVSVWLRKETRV", "assay": "Competitive radioligand binding (MDS Pharma)"}, "Prostanoid CRTH2": {"biological_target": "T2, Prostanoid CRTH2 (Homo sapiens, UniProt Q9Y5Y4)", "T2 construct": "purchased MDS Pharma (outsourced assay)", "T2 sequence (Q9Y5Y4 whole entry)": "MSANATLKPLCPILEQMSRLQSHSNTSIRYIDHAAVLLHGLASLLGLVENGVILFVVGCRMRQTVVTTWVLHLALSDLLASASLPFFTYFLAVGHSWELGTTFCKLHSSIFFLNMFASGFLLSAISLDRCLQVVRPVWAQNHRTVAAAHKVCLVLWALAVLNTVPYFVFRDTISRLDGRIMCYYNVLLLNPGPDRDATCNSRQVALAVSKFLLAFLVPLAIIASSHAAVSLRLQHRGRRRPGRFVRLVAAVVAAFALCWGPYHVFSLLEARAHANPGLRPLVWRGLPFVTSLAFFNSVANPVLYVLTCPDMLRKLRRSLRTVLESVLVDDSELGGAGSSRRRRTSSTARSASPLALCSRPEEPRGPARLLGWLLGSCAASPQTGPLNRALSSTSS", "assay": "Competitive radioligand binding (MDS Pharma)"}, "Prostanoid EP4": {"biological_target": "T3, Prostanoid EP4 (Homo sapiens, UniProt P35408)", "T3 construct": "host or cells: EP4-expressing membrane preparations", "T3 sequence (P35408 whole entry)": "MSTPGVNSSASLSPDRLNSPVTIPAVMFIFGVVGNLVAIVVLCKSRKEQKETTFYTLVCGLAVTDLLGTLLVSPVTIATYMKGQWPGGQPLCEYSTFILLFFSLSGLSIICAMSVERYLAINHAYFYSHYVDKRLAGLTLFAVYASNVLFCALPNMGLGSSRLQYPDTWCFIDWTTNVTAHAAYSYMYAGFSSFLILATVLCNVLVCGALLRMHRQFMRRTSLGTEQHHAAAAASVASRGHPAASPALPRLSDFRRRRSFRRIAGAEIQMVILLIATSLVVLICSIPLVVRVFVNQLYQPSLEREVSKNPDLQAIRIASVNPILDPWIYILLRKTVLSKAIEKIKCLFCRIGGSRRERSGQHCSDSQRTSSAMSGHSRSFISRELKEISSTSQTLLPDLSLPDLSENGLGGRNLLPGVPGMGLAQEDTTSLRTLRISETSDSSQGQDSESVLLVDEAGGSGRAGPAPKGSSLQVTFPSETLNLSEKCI", "assay": "Competitive radioligand binding (MDS Pharma)", "description": "Radioligand EP4 binding. The radioligand EP4 binding assay measures displacement of radiolabelled PGE2 from EP4-expressing membrane preparations. Radioligand EP4 binding assay kit was purchased from Millipore, and the assay was performed according to instructions of the manufacture."}, "EP4": {"biological_target": "T4, EP4 (Homo sapiens, UniProt P35408)", "T4 construct": "SE302 cells that express endogenous EP4; endogenous in cells; host or cells: SE302 cells", "T4 sequence (P35408 whole entry)": "as above", "assay": "PGE2 induced CRE-PLAP reporter assay in SE302 cells", "assay_type": "cell-based", "details": "read-out: IC50 against PGE2 induced CRE-PLAP reporter activity", "description": "CRE-PLAP reporter assay. SE302 cells that express endogenous EP4 were stimulated with PGE2 in the presence or absence of ER-819762 for overnight, and PLAP activity was measured."}, "5-HT1B": {"biological_target": "T5, 5-HT1B (Homo sapiens, UniProt P28222)", "T5 construct": "purchased Millipore (outsourced screen)", "assay": "FLIPR functional screen", "assay_type": "cell-based", "details": "antagonist mode"}, "5-HT2A": {"biological_target": "T6, 5-HT2A (Homo sapiens, UniProt P28223)", "T6 construct": "purchased Millipore (outsourced screen)", "assay": "FLIPR functional screen", "assay_type": "cell-based", "details": "antagonist mode"}, "5-HT2C": {"biological_target": "T7, 5-HT2C (Homo sapiens, UniProt P28335)", "T7 construct": "purchased Millipore (outsourced screen)", "assay": "FLIPR functional screen", "assay_type": "cell-based", "details": "antagonist mode"}, "ADRA1A": {"biological_target": "T8, ADRA1A (Homo sapiens, UniProt P35348)", "T8 construct": "purchased Millipore (outsourced screen)", "assay": "FLIPR functional screen", "assay_type": "cell-based", "details": "antagonist mode"}, "ADRB1": {"biological_target": "T9, ADRB1 (Homo sapiens, UniProt P08588)", "T9 construct": "purchased Millipore (outsourced screen)", "assay": "FLIPR functional screen", "assay_type": "cell-based", "details": "antagonist mode"}, "RDKR2": {"biological_target": "T10, RDKR2 (Homo sapiens, UniProt P30411)", "T10 construct": "Millipore", "assay": "FLIPR functional screen", "assay_type": "cell-based", "details": "antagonist mode"}, "CCK1": {"biological_target": "T11, CCK1 (Homo sapiens, UniProt P32238)", "T11 construct": "Millipore", "assay": "FLIPR functional screen", "assay_type": "cell-based", "details": "antagonist mode"}, "CCK2": {"biological_target": "T12, CCK2 (Homo sapiens, UniProt P32239)", "T12 construct": "Millipore", "assay": "FLIPR functional screen", "assay_type": "cell-based", "details": "antagonist mode"}, "CCR8": {"biological_target": "T13, CCR8 (Homo sapiens, UniProt P51685)", "T13 construct": "Millipore", "assay": "FLIPR functional screen", "assay_type": "cell-based", "details": "antagonist mode"}, "CGRP1": {"biological_target": "T14, CGRP1 (Homo sapiens, UniProt O60894+Q16602)", "T14 construct": "Millipore", "assay": "FLIPR functional screen", "assay_type": "cell-based", "details": "antagonist mode"}, "CRTH2": {"biological_target": "T15, CRTH2 (Homo sapiens, UniProt Q9Y5Y4)", "T15 construct": "Millipore", "T15 sequence (Q9Y5Y4 whole entry, species assumed)": "as the sequence (Q9Y5Y4 whole entry) above", "assay": "FLIPR functional screen", "assay_type": "cell-based", "details": "antagonist mode"}, "CX3CR1": {"biological_target": "T16, CX3CR1 (Homo sapiens, UniProt P49238)", "T16 construct": "Millipore", "T16 sequence (P49238 whole entry, species assumed)": "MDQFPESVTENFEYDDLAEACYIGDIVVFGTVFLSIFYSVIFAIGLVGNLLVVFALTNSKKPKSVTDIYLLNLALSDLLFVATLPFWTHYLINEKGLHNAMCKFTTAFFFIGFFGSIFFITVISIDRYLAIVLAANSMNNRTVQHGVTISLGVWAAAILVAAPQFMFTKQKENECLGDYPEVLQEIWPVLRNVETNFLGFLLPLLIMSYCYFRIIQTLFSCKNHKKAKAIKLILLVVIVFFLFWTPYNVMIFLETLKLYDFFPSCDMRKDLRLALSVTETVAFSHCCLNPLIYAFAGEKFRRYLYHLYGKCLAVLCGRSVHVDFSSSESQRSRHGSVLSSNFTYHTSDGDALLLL", "assay": "FLIPR functional screen", "assay_type": "cell-based", "details": "antagonist mode"}, "CXCR1": {"biological_target": "T17, CXCR1 (Homo sapiens, UniProt P25024)", "T17 construct": "Millipore", "T17 sequence (P25024 whole entry, species assumed)": "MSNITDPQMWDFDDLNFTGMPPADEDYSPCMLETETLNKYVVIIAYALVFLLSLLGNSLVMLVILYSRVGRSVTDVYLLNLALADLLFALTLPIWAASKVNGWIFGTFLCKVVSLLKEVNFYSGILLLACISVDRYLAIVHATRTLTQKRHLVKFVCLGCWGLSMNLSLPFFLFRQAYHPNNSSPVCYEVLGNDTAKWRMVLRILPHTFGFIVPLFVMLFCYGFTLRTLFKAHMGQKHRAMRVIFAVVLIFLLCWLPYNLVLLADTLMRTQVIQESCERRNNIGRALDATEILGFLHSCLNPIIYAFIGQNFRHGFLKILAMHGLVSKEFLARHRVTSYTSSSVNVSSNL", "assay": "FLIPR functional screen", "assay_type": "cell-based", "details": "antagonist mode"}, "CXCR4": {"biological_target": "T18, CXCR4 (Homo sapiens, UniProt P61073)", "T18 construct": "Millipore", "assay": "FLIPR functional screen", "assay_type": "cell-based", "details": "antagonist mode"}, "D5": {"biological_target": "T19, D5 (Homo sapiens, UniProt P21918)", "T19 construct": "Millipore", "assay": "FLIPR functional screen", "assay_type": "cell-based", "details": "antagonist mode"}, "EP3": {"biological_target": "T20, EP3 (Homo sapiens, UniProt P43115)", "T20 construct": "Millipore", "assay": "FLIPR functional screen", "assay_type": "cell-based", "details": "antagonist mode"}, "ETB": {"biological_target": "T21, ETB (Homo sapiens, UniProt P24530)", "T21 construct": "Millipore", "assay": "FLIPR functional screen", "assay_type": "cell-based", "details": "antagonist mode"}, "GPR103": {"biological_target": "T22, GPR103 (Homo sapiens, UniProt Q96P65)", "T22 construct": "Millipore", "assay": "FLIPR functional screen", "assay_type": "cell-based", "details": "antagonist mode"}, "GPR43": {"biological_target": "T23, GPR43 (Homo sapiens, UniProt O15552)", "T23 construct": "Millipore", "T23 sequence (O15552 whole entry, species assumed)": "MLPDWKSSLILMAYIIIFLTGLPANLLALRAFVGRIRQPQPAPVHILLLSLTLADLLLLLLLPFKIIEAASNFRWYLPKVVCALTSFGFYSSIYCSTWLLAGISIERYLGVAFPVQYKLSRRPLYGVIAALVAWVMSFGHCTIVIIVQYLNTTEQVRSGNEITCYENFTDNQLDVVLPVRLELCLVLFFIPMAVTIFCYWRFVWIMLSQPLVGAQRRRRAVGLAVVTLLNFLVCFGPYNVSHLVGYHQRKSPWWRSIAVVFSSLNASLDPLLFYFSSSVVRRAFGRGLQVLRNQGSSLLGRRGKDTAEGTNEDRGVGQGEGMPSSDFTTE", "assay": "FLIPR functional screen", "assay_type": "cell-based", "details": "antagonist mode"}, "H3": {"biological_target": "T24, H3 (Homo sapiens, UniProt Q9Y5N1)", "T24 construct": "Millipore", "T24 sequence (Q9Y5N1 whole entry)": "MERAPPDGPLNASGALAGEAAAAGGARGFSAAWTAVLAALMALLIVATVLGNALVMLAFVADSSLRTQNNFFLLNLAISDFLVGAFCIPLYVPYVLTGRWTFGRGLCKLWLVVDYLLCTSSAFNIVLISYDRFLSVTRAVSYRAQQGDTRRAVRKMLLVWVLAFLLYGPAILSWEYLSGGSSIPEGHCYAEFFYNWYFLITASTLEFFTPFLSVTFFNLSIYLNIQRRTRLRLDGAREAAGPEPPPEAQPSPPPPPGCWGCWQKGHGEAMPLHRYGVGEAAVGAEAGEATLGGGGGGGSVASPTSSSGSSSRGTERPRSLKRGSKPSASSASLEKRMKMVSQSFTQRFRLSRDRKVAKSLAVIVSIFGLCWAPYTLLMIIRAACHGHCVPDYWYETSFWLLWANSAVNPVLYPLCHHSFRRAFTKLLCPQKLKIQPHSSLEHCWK", "assay": "FLIPR functional screen", "assay_type": "cell-based", "details": "antagonist mode"}, "M3": {"biological_target": "T25, M3 (Homo sapiens, UniProt P20309)", "T25 construct": "Millipore", "assay": "FLIPR functional screen", "assay_type": "cell-based", "details": "antagonist mode"}, "M4": {"biological_target": "T26, M4 (Homo sapiens, UniProt P08173)", "T26 construct": "Millipore", "assay": "FLIPR functional screen", "assay_type": "cell-based", "details": "antagonist mode"}, "MC2": {"biological_target": "T27, MC2 (Homo sapiens, UniProt Q01718)", "T27 construct": "Millipore", "assay": "FLIPR functional screen", "assay_type": "cell-based", "details": "antagonist mode"}, "NK3": {"biological_target": "T28, NK3 (Homo sapiens, UniProt P29371)", "T28 construct": "Millipore", "assay": "FLIPR functional screen", "assay_type": "cell-based", "details": "antagonist mode"}, "NMU1": {"biological_target": "T29, NMU1 (Homo sapiens, UniProt Q9HB89)", "T29 construct": "Millipore", "T29 sequence (Q9HB89 whole entry)": "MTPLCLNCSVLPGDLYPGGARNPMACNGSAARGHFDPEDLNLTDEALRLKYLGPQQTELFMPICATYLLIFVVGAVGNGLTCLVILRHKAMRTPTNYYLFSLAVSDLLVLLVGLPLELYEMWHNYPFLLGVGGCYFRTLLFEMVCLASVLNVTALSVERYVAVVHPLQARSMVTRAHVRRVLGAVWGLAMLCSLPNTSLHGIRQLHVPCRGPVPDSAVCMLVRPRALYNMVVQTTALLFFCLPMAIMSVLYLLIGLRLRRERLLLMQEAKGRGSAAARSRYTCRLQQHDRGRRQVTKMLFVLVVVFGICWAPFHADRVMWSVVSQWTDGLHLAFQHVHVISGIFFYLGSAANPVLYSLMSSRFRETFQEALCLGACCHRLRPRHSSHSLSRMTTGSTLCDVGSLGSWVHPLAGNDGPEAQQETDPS", "assay": "FLIPR functional screen", "assay_type": "cell-based", "details": "antagonist mode"}, "NTR1": {"biological_target": "T30, NTR1 (Homo sapiens, UniProt P30989)", "T30 construct": "Millipore", "T30 sequence (P30989 whole entry, species assumed)": "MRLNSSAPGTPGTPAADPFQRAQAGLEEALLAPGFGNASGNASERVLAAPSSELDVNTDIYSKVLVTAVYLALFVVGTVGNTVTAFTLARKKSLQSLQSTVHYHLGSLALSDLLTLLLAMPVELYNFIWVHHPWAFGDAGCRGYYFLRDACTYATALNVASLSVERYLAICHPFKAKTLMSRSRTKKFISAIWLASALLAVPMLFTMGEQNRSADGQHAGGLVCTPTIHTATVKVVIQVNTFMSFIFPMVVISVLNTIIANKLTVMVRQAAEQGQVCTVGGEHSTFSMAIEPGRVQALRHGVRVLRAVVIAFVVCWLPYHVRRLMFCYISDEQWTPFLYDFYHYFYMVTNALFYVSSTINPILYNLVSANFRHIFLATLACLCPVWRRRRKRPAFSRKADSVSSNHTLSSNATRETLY", "assay": "FLIPR functional screen", "assay_type": "cell-based", "details": "antagonist mode"}, "PK1": {"biological_target": "T31, PK1 (Homo sapiens, UniProt Q8TCW9)", "T31 construct": "Millipore", "T31 sequence (Q8TCW9 whole entry)": "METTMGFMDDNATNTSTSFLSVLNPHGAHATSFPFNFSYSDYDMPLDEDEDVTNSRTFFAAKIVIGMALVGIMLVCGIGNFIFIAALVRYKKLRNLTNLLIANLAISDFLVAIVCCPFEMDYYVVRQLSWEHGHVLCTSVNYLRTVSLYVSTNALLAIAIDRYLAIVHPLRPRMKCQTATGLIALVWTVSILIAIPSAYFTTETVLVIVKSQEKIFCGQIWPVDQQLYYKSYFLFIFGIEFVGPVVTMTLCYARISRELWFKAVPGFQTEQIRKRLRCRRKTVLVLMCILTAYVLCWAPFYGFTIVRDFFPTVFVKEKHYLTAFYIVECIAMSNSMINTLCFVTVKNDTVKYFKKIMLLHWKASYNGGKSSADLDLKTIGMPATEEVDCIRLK", "assay": "FLIPR functional screen", "assay_type": "cell-based", "details": "PK-1, antagonist mode"}, "PTH2": {"biological_target": "T32, PTH2 (Homo sapiens, UniProt P49190)", "T32 construct": "Millipore", "T32 sequence (P49190 25-550)": "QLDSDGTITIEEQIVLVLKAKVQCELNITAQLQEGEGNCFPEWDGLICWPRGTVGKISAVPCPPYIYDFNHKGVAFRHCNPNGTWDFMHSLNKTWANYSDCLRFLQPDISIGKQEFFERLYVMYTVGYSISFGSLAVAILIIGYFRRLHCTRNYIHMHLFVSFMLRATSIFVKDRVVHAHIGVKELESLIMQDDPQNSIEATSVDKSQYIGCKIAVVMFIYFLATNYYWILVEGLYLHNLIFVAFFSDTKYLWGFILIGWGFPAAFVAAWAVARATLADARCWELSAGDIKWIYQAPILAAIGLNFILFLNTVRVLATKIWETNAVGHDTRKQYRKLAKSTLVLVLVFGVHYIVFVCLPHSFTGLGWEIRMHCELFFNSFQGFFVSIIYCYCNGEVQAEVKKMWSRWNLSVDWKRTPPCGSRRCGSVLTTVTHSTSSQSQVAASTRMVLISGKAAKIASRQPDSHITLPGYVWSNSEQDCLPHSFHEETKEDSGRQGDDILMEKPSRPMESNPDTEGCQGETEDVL", "assay": "FLIPR functional screen", "assay_type": "cell-based", "details": "antagonist mode"}, "S1P4": {"biological_target": "T33, S1P4 (Homo sapiens, UniProt O95977)", "T33 construct": "Millipore", "assay": "FLIPR functional screen", "assay_type": "cell-based", "details": "antagonist mode"}, "S1P5": {"biological_target": "T34, S1P5 (Homo sapiens, UniProt Q9H228)", "T34 construct": "Millipore", "assay": "FLIPR functional screen", "assay_type": "cell-based", "details": "antagonist mode"}, "TP": {"biological_target": "T35, TP (Homo sapiens, UniProt P21731)", "T35 construct": "Millipore", "assay": "FLIPR functional screen", "assay_type": "cell-based", "details": "antagonist mode"}, "V2": {"biological_target": "T36, V2 (Homo sapiens, UniProt P30518)", "T36 construct": "Millipore", "T36 sequence (P30518 whole entry)": "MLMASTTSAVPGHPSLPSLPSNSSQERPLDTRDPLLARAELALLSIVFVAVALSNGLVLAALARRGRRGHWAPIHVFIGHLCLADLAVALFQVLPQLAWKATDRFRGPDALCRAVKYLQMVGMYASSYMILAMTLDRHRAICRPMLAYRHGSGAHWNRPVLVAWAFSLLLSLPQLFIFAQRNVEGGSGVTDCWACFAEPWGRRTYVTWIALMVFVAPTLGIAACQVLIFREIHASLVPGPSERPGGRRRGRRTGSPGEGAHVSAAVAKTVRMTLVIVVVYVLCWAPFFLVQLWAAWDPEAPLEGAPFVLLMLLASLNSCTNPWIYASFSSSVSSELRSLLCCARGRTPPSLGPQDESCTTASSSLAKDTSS", "assay": "FLIPR functional screen", "assay_type": "cell-based", "details": "antagonist mode"}},
  "data": [
    {"smiles": "CCN1C(=O)N2Cc3cc(OC)cc(OC)c3[C@@H](C)C=C2C12CCN(Cc1cccn1C)CC2", "note": "[ER-819924-01]", "values": [
      {"measurement": "% INHIBITION", "setting": "[1]; CONC. 0.1 μm", "value": 3, "unit": "%"},
      {"measurement": "% INHIBITION", "setting": "[1]; CONC. 1 μm", "value": 0, "unit": "%"},
      {"measurement": "% INHIBITION", "setting": "Prostanoid CRTH2; CONC. 0.1 μm", "value": 8, "unit": "%"},
      {"measurement": "% INHIBITION", "setting": "Prostanoid CRTH2; CONC. 1 μm", "value": "−5", "unit": "%"},
      {"measurement": "% INHIBITION", "setting": "Prostanoid EP4; CONC. 0.1 μm", "value": 21, "unit": "%"},
      {"measurement": "% INHIBITION", "setting": "Prostanoid EP4; CONC. 1 μm", "value": 71, "unit": "%"},
      {"measurement": "binding selectivity for EP4 over other EP/prostanoid/leukotriene receptors", "setting": "Prostanoid EP4; competitive radioligand binding assay", "value": "selectively bind to EP4"},
      {"measurement": "IC50", "setting": "EP4", "value": 0.028, "unit": "µM"},
      {"measurement": "inhibition at 1 µM", "setting": "5-HT1B", "value": 3, "unit": "%"},
      {"measurement": "inhibition at 1 µM", "setting": "5-HT2A", "value": 8.8, "unit": "%"},
      {"measurement": "inhibition at 1 µM", "setting": "5-HT2C", "value": -12.5, "unit": "%"},
      {"measurement": "inhibition at 1 µM", "setting": "ADRA1A", "value": 17.6, "unit": "%"},
      {"measurement": "inhibition at 1 µM", "setting": "ADRB1", "value": -15.3, "unit": "%"},
      {"measurement": "inhibition at 1 µM", "setting": "RDKR2", "value": 1.7, "unit": "%"},
      {"measurement": "inhibition at 1 µM", "setting": "CCK1", "value": 13, "unit": "%"},
      {"measurement": "inhibition at 1 µM", "setting": "CCK2", "value": -0.4, "unit": "%"},
      {"measurement": "inhibition at 1 µM", "setting": "CCR8", "value": 2.9, "unit": "%"},
      {"measurement": "inhibition at 1 µM", "setting": "CGRP1", "value": -5.6, "unit": "%"},
      {"measurement": "inhibition at 1 µM", "setting": "CRTH2", "value": 4.1, "unit": "%"},
      {"measurement": "inhibition at 1 µM", "setting": "CX3CR1", "value": 1.7, "unit": "%"},
      {"measurement": "inhibition at 1 µM", "setting": "CXCR1", "value": 3.9, "unit": "%"},
      {"measurement": "inhibition at 1 µM", "setting": "CXCR4", "value": -11.8, "unit": "%"},
      {"measurement": "inhibition at 1 µM", "setting": "D5", "value": 34.7, "unit": "%"},
      {"measurement": "inhibition at 1 µM", "setting": "EP3", "value": 7.8, "unit": "%"},
      {"measurement": "inhibition at 1 µM", "setting": "ETB", "value": 6.2, "unit": "%"},
      {"measurement": "inhibition at 1 µM", "setting": "GPR103", "value": 0.4, "unit": "%"},
      {"measurement": "inhibition at 1 µM", "setting": "GPR43", "value": 10.6, "unit": "%"},
      {"measurement": "inhibition at 1 µM", "setting": "H3", "value": -31.5, "unit": "%"},
      {"measurement": "inhibition at 1 µM", "setting": "M3", "value": 8.9, "unit": "%"},
      {"measurement": "inhibition at 1 µM", "setting": "M4", "value": 10.5, "unit": "%"},
      {"measurement": "inhibition at 1 µM", "setting": "MC2", "value": -1, "unit": "%"},
      {"measurement": "inhibition at 1 µM", "setting": "NK3", "value": -2.2, "unit": "%"},
      {"measurement": "inhibition at 1 µM", "setting": "NMU1", "value": -14, "unit": "%"},
      {"measurement": "inhibition at 1 µM", "setting": "NTR1", "value": 0.5, "unit": "%"},
      {"measurement": "inhibition at 1 µM", "setting": "PK1", "value": -4.3, "unit": "%"},
      {"measurement": "inhibition at 1 µM", "setting": "PTH2", "value": -6.2, "unit": "%"},
      {"measurement": "inhibition at 1 µM", "setting": "S1P4", "value": -6.6, "unit": "%"},
      {"measurement": "inhibition at 1 µM", "setting": "S1P5", "value": -7.4, "unit": "%"},
      {"measurement": "inhibition at 1 µM", "setting": "TP", "value": 1.8, "unit": "%"},
      {"measurement": "inhibition at 1 µM", "setting": "V2", "value": -24.8, "unit": "%"}
    ]}
  ]
}
